Read-outs that look alike come from different tables or passages of the source.
Biological target: recombinant PIM-1 (Homo sapiens, UniProt P11309)
Experiment: PIM-1 kinase assay (radiometric, 15 uM ATP, DMSO 4%)
Assay type: biochemical
Description: The following procedure was used to assay the PIM-1 kinase activity of compounds of the invention. Other methods for assaying PIM-1 and other PIM kinases, as well as methods to assay for activity against the various kinases in FIG. 1, are known in the art.
(specific activity approx. 500 cpm/pmol), DMSO 4% and test inhibitor compound at the required concentration. The reaction was initiated by the addition of the Magnesium ATP mixture. After 40 min incubation at 23° C., the reactions were quenched by the addition of 100 ul 0.75% Phosphoric acid, and the labeled peptide collected by filtration through a phosphocellulose filter plate. The plate was washed 4 times with 0.075% phosphoric acid (100 ul per well) and then, after the addition of scintillation fluid (20 ul per well), the counts were measured by a scintillation counter.

[1] = Table 1, % inhibition at the high dose (2 micromolar) in a single screening assay, 15 μM ATP
[2] = Table 3, DMSO 4%, read-out: PIM1: IC50 (DMSO 4%)
[3] = Table 1, given for compounds with IC50 at or below 2 micromolar, 15 uM ATP, read-out: PIM-1 IC50

Chain of recombinant PIM-1 (P11309 whole entry): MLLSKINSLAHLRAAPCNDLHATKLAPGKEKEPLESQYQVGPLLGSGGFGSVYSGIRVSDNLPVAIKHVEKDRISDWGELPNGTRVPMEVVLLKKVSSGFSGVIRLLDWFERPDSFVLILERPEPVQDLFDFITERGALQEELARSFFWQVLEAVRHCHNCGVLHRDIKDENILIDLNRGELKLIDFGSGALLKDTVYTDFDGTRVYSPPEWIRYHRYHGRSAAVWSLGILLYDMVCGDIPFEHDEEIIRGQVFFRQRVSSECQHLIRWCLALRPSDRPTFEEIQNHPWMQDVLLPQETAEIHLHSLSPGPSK

| SMILES | inhibition at 2 µM [1] | IC50 [3] | also measured |
| --- | --- | --- | --- |
| CN1CCCCC1CNC(=O)c1cccc(-c2ccc(/C=C3/C(=O)Nc4ccc([N+](=O)[O-])cc43)o2)c1 (centres unmarked) [Compound 53] | 23.5% | – | – |
| CN1CCC(N(C)C(=O)c2cc(-c3ccc(/C=C4/C(=O)Nc5ccc(F)cc54)o3)ccc2Cl)C1 (centres unmarked) [Compound 72] | 37.1% | – | – |
| O=C1Nc2ccc(F)cc2/C1=C\c1ccc(-c2ccc(Cl)c(C(=O)NCCN3CCCC3)c2)o1 [Compound 73] | 20.9% | – | – |
| CN1CCN(c2ccc(-c3ccc(/C=C4\C(=O)Nc5ccc(Cl)cc54)o3)cn2)CC1 | – | – | IC50 [2]: < 1000 nM |
| COCCNC(=O)c1ccc2c(c1)/C(=C\c1ccc(-c3cccc(C(=O)NCCN4CCCC4)c3)o1)C(=O)N2 [Compound 7] | 32.7% | – | – |
| CN(C)C1CCN(C(=O)c2cc(-c3ccc(/C=C4/C(=O)Nc5ccc(F)cc54)o3)ccc2Cl)CC1 [Compound 75] | 27.8% | – | – |
| O=C1Nc2ccccc2/C1=C\c1ccc(-c2ccc(Cl)c(C(=O)NCCN3CCCC3)c2)o1 [Compound 11] | 5.6% | – | – |
| CN1CCCC(NC(=O)c2cccc(-c3coc(/C=C4/C(=O)Nc5ccc(F)cc54)c3)c2)C1 (centres unmarked) [Compound 89] | 6.1% | – | – |
| O=C1Nc2ccc(F)cc2/C1=C\c1ccc(-c2cccc(C(=O)NC3CC3)c2)o1 [Compound 20] | 46% | – | – |
| COC(=O)c1ccccc1-c1ccc(/C=C2/C(=O)Nc3ccc(F)cc32)o1 [Compound 30] | -6.8% | – | – |
| CN1CCCCC1CNC(=O)c1cccc(-c2ccc(/C=C3/C(=O)Nc4ccc(C#N)cc43)o2)c1 (centres unmarked) [Compound 46] | -0.36% | – | – |
| CN1CCCCC1CNC(=O)c1ccc(-c2ccc(/C=C3/C(=O)Nc4ccccc43)o2)cc1 (centres unmarked) [Compound 37] | – | < 2000 nM | – |
| CCN1CCCC1CNC(=O)c1ccc(Cl)c(-c2ccc(/C=C3/C(=O)Nc4ccc(F)cc43)o2)c1 (centres unmarked) [Compound 100] | – | < 1000 nM | – |
| O=C1Nc2ccccc2/C1=C\c1ccc(-c2ccccc2C(=O)O)o1 [Compound 31] | 11.4% | – | – |
| O=C1Nc2ccc(Cl)cc2/C1=C\c1ccc(-c2cccc(C(=O)NCc3ccncc3)c2)o1 [Compound 108] | – | < 1000 nM | – |
| CN1CCCC(NC(=O)c2ccc(-c3ccc(/C=C4/C(=O)Nc5ccccc54)o3)cc2)C1 (centres unmarked) [Compound 35] | – | < 1000 nM | – |
| CCN1CCCC1CNC(=O)c1cccc(-c2ccc(/C=C3/C(=O)Nc4ccccc43)o2)c1 (centres unmarked) [Compound 57] | 10.6% | – | – |
| O=C1Nc2ccc(F)cc2/C1=C\c1ccc(-c2ccc(Cl)c(C(=O)NCCN3CCCC3)c2)o1 [Compound 12] | – | – | PIM-1 Inhibition @ 15 μM ATP [1]: 35.20% |
| Cn1cncc1CNC(=O)c1ccccc1-c1ccc(/C=C2/C(=O)Nc3ccccc32)o1 [Compound 59] | -4.35% | – | – |

| SMILES | inhibition at 2 µM [1] | IC50 [3] | also measured |
| --- | --- | --- | --- |
| O=C1CN(C(=O)c2cccc(-c3ccc(/C=C4/C(=O)Nc5ccccc54)o3)c2)CCN1 [Compound 23] | -14.2% | – | – |
| CN1CCCN(C(=O)c2ccc(Cl)c(-c3ccc(/C=C4/C(=O)Nc5ccc(F)cc54)o3)c2)CC1 | – | – | IC50 [2]: < 1000 nM |
| CN1CCCC(NC(=O)c2ccccc2-c2ccc(/C=C3/C(=O)Nc4ccccc43)o2)C1 (centres unmarked) [Compound 56] | 13.8% | – | – |
| O=C1Nc2ccc(Cl)cc2/C1=C\c1ccc(-c2ccc(Cl)c(C(=O)NCCN3CCCC3)c2)o1 [Compound 106] | 22.2% | – | – |
| CN(C)C1CCN(C(=O)c2cccc(-c3ccc(/C=C4/C(=O)Nc5ccc(Cl)cc54)o3)c2)CC1 [Compound 113] | 38.1% | – | – |
| O=C1Nc2c(Cl)cccc2/C1=C\c1ccc(-c2cccc(C(=O)NCCN3CCCC3)c2)o1 [Compound 41] | 19% | – | – |
| O=C1Nc2ccc(C(F)(F)F)cc2/C1=C\c1ccc(-c2cccc(C(=O)NCCN3CCCC3)c2)o1 [Compound 47] | 22.9% | – | – |
| CN1CCCCC1CNC(=O)c1cccc(-c2ccc(/C=C3/C(=O)Nc4c(Cl)cccc43)o2)c1 (centres unmarked) [Compound 42] | 9.73% | – | – |
| CN1CCC(N(C)C(=O)c2ccccc2-c2ccc(/C=C3/C(=O)Nc4ccccc43)o2)C1 (centres unmarked) [Compound 58] | 7.15% | – | – |
| O=C1Nc2ccccc2/C1=C\c1ccc(-c2cc(C(=O)NCCN3CCCC3)ccc2F)o1 [Compound 78] | 88.3% | < 1000 nM | – |
| Cn1cncc1CNC(=O)c1cccc(-c2ccc(/C=C3/C(=O)Nc4ccc(F)cc43)o2)c1 [Compound 22] | – | < 1000 nM | – |
| O=C1Nc2ccc([N+](=O)[O-])cc2/C1=C\c1ccc(-c2cccc(C(=O)NCCN3CCCC3)c2)o1 [Compound 52] | 20.4% | – | – |
| O=C1Nc2ccccc2/C1=C\c1ccc(-c2ccc(Cl)c(C(=O)NCC3CCCN3)c2)o1 (centres unmarked) [Compound 29] | -33.4% | – | – |
| COC(=O)c1ccc2c(c1)/C(=C\c1ccc(-c3cccc(C(=O)NCCN4CCCC4)c3)o1)C(=O)N2 [Compound 5] | – | < 1000 nM | – |
| CN(C)C1CCN(C(=O)c2ccc(-c3ccc(/C=C4/C(=O)Nc5ccc(F)cc54)o3)cc2)CC1 [Compound 87] | 51.9% | < 2000 nM | – |
| CN1CCCCC1CNC(=O)c1ccc(Cl)c(-c2ccc(/C=C3/C(=O)Nc4ccc(F)cc43)o2)c1 (centres unmarked) [Compound 102] | – | < 2000 nM | – |
| Cc1cnc(CNC(=O)c2ccc(-c3ccc(/C=C4/C(=O)Nc5ccc(F)cc54)o3)cc2)cn1 [Compound 82] | 26.6% | – | – |
| Cn1cncc1CNC(=O)c1cccc(-c2coc(/C=C3/C(=O)Nc4ccc(F)cc43)c2)c1 [Compound 92] | 12.7% | – | – |
| CN(C)C1CCN(C(=O)c2ccccc2-c2ccc(/C=C3/C(=O)Nc4ccccc43)o2)CC1 [Compound 61] | -2.65% | – | – |

More lines, main results first:

| inhibition at 2 µM [1] | IC50 [3] | SMILES | also measured |
| --- | --- | --- | --- |
| 15.2% | – | CN1CCN(C(=O)c2ccc(-c3ccc(/C=C4/C(=O)Nc5ccccc54)o3)cn2)CC1 [Compound 136] | – |
| – | < 1000 nM | CCN(CC)CC(=O)Nc1cccc(-c2ccc(/C=C3/C(=O)Nc4ccccc43)o2)c1 [Compound 187] | – |
| 32.7% | – | COc1cc(CNC(=O)c2cccc(-c3ccc(/C=C4/C(=O)Nc5ccc(Cl)cc54)o3)c2)ccn1 [Compound 142] | – |
| 10.9% | – | CN(C)c1ccc(CNC(=O)c2cccc(-c3ccc(/C=C4/C(=O)Nc5ccc(Cl)cc54)o3)c2)cc1 [Compound 177] | – |
| – | < 2000 nM | O=C1Nc2ccccc2/C1=C\c1ccc(-c2ccc(CO)cc2)o1 [Compound 164] | – |
| – | < 2000 nM | Nc1cccc(-c2ccc(/C=C3/C(=O)Nc4ccccc43)o2)c1 [Compound 183] | – |
| – | < 2000 nM | O=C1Nc2ccccc2/C1=C\c1ccc(-c2ccc(C(=O)NCCN3CCCC3)c(O)c2)o1 [Compound 182] | – |
| 34.5% | – | CCOC(=O)c1cncc(-c2ccc(/C=C3/C(=O)Nc4ccc(Cl)cc43)o2)c1 [Compound 145] | – |
| – | < 1000 nM | O=C1Nc2ccc(Cl)cc2/C1=C\c1ccc(-c2cncc(C(=O)NCCN3CCCC3)c2)o1 [Compound 147] | – |
| 19.2% | – | O=C1Nc2ccc(Cl)cc2/C1=C\c1ccc(-c2cccc(C(=O)NCc3ccccn3)c2)o1 [Compound 117] | – |
| – | < 1000 nM | CCN1CCCC1CNC(=O)c1cncc(-c2ccc(/C=C3/C(=O)Nc4ccc(Cl)cc43)o2)c1 (centres unmarked) [Compound 151] | – |
| – | < 1000 nM | CN1CCCN(C(=O)c2cccc(-c3ccc(CC4C(=O)Nc5ccc(Cl)cc54)o3)c2)CC1 (centres unmarked) [Compound 197] | – |
| – | < 1000 nM | O=C1Nc2ccc(Cl)cc2/C1=C\c1ccc(-c2cccc(C(=O)NCC(O)c3cccnc3)c2)o1 (centres unmarked) [Compound 189] | – |
| – | < 1000 nM | NC(=O)c1cccc(-c2ccc(/C=C3/C(=O)Nc4ccccc43)o2)c1 [Compound 166] | – |
| -59.6% | – | CON(C)C(=O)c1cccc(-c2ccc(/C=C3/C(=O)Nc4ccc(Cl)cc43)o2)c1 [Compound 176] | – |
| 41.5% | – | CN(C)CCCOc1ccc(-c2ccc(/C=C3/C(=O)Nc4ccccc43)o2)cn1 [Compound 125] | – |

| inhibition at 2 µM [1] | IC50 [3] | SMILES | also measured |
| --- | --- | --- | --- |
| -0.11% | – | CN(CCc1ccccn1)C(=O)c1cccc(-c2ccc(/C=C3/C(=O)Nc4ccc(Cl)cc43)o2)c1 [Compound 171] | – |
| 18.4% | – | O=C1Nc2ccc(Cl)cc2/C1=C\c1ccc(-c2cccc(C(=O)NCCc3ccc(O)cc3)c2)o1 [Compound 179] | – |
| 28.4% | – | O=C1Nc2ccccc2/C1=C\c1ccc(-c2ccc(C(=O)NCCCn3ccnc3)c(F)c2)o1 [Compound 161] | – |
| 32.4% | – | CCN(CC)CCNC(=O)c1ccc(-c2ccc(/C=C3/C(=O)Nc4ccccc43)o2)cn1 [Compound 134] | – |
| – | < 1000 nM | O=C1Nc2ccccc2/C1=C\c1ccc(-c2ccc(C(=O)O)nc2)o1 [Compound 127] | – |
| 1.44% | – | CN1CCCC(NC(=O)c2ccc(-c3ccc(/C=C4/C(=O)Nc5ccccc54)o3)cn2)C1 (centres unmarked) [Compound 129] | – |
| – | < 2000 nM | O=C1Nc2ccc(Cl)cc2/C1=C\c1ccc(-c2cncc(C(=O)O)c2)o1 [Compound 146] | – |
| – | < 1000 nM | CCN(CC)CCNC(=O)c1cncc(-c2ccc(/C=C3/C(=O)Nc4ccc(Cl)cc43)o2)c1 [Compound 152] | – |
| – | < 1000 nM | O=C1Nc2ccc(Cl)cc2/C1=C\c1ccc(-c2cccc(C(=O)NCC(O)c3ccccc3)c2)o1 (centres unmarked) [Compound 180] | – |
| – | < 1000 nM | O=C1Nc2ccc(Cl)cc2/C1=C\c1ccc(-c2cccc(C(=O)NC3=NCCS3)c2)o1 [Compound 174] | – |
| 27.2% | – | O=C1Nc2ccccc2/C1=C\c1ccc(-c2ccc(C(=O)NCCN3CCCC3)nc2)o1 [Compound 128] | – |
| – | < 1000 nM | CN1CCCN(C(=O)c2ccc(-c3ccc(/C=C4/C(=O)Nc5ccc(Cl)cc54)o3)cc2)CC1 [Compound 196] | – |
| – | < 1000 nM | CN(C)CCNC(=O)c1cccc(-c2ccc(/C=C3/C(=O)Nc4ccc(Cl)cc43)o2)c1 [Compound 118] | – |
| – | < 1000 nM | O=C1Nc2ccc(Cl)cc2/C1=C\c1ccc(-c2cccc(C(=O)NCCN(CCO)CCO)c2)o1 [Compound 193] | – |
| 25.2% | – | CC1CCN(CCCNC(=O)c2cccc(-c3ccc(/C=C4/C(=O)Nc5ccc(Cl)cc54)o3)c2)CC1 [Compound 121] | – |

Source: patent publication US20120190669A1, “OXINDOLE COMPOUNDS” (CYLENE PHARMACEUTICALS, INC., priority 2008, published 2012)
